From ChEMBL document CHEMBL5352401, “Novel cudraisoflavone J derivatives as potent neuroprotective agents for the treatment of Parkinson's disease via the activation of Nrf2/HO-1 signaling” (Eur J Med Chem, 2022)
Values belong to the molecule of their own block, whether it stands above or below them. Activity calls are given as the source filed them. The rule behind the calls is not given here.

How the values were obtained:
[1] = tested on: PC-12; assay: Cytotoxicity in rat PC-12 cells assessed as cell viability measured at 10 uM for 24 hrs by MTT assay; assay type: functional, cell-based
[2] = tested on: PC-12; assay: Neuroprotective activity against 6-OHDA-induced cytotoxicity in rat PC-12 cells at 30 uM for 4 hrs followed by exposure to 6-OHDA measured after 24 hrs by MTT assay; assay type: functional, cell-based; conditions: time 28.0 hrs
[3] = tested on: PC-12; assay: Neuroprotective activity against 6-OHDA-induced cytotoxicity in rat PC-12 cells at 10 uM for 4 hrs followed by exposure to 6-OHDA measured after 24 hrs by MTT assay; assay type: functional, cell-based; conditions: time 28.0 hrs
[4] = target: T1, Nuclear factor erythroid 2-related factor 2 (Rattus norvegicus) (UniProt O54968); assay: Induction of Nrf2 nuclear translocation in rat PC12 cells assessed as increase in phosphorylation of AKT at 10 uM for 2 to 3 hrs by Western blotting analysis; assay type: cell-based; conditions: PC-12, filed as activator, time 2-3 hrs
T1 sequence (whole entry): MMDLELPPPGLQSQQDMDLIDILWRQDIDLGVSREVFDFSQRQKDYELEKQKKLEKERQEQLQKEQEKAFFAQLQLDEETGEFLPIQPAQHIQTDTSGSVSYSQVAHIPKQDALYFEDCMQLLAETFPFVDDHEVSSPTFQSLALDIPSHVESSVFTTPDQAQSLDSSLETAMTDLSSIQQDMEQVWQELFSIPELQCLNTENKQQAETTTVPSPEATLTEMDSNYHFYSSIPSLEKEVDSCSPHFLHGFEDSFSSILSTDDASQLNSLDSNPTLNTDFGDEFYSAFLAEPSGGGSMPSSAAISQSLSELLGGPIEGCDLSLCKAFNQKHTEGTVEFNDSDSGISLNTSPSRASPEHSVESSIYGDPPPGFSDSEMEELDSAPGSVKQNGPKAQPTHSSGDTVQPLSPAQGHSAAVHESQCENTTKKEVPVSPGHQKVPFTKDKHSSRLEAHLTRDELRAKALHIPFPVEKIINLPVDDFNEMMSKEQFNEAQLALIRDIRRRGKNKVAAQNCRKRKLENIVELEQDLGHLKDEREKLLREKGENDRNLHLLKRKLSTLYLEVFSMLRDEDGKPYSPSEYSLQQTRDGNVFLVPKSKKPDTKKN

[5] = Neurotoxicity in rotenone induced at rat PC-12 cells assessed as cell viability pretreated with compound for 4 hrs followed by rotenone addition measured after 24 hrs by MTT assay; assay type: toxicity, cell-based
[6] = target: T1, Nuclear factor erythroid 2-related factor 2 (Rattus norvegicus); assay: Induction of Nrf2 nuclear translocation in rat PC12 cells assessed as increase in phosphorylation of ERK1 pretreated with U0126 for 2 hrs followed by compound addition at 10 uM for 2 to 3 hrs by Western blotting analysis; assay type: cell-based; conditions: PC-12, time 2-3 hrs
[7] = target: T1, Nuclear factor erythroid 2-related factor 2 (Rattus norvegicus); assay: Induction of Nrf2 nuclear translocation in rat PC12 cells assessed as increase in phosphorylation of JNK pretreated with SP600125 for 2 hrs followed by compound addition at 10 uM for 2 to 3 hrs by Western blotting analysis; assay type: cell-based; conditions: PC-12, time 2-3 hrs
[8] = target: KEAP1/NRF2 (Rattus norvegicus) (UniProt O54968+P57790); assay: Inhibition of Nrf2-Keap1 protein-protein interaction in rat PC-12 cells by Western blotting analysis; assay type: cell-based
[9] = target: T1, Nuclear factor erythroid 2-related factor 2 (Rattus norvegicus); assay: Induction of Nrf2 nuclear translocation in rat PC12 cells assessed as increase in phosphorylation of ERK2 at 10 uM for 2 to 3 hrs by Western blotting analysis; assay type: cell-based; conditions: PC-12, filed as activator, time 2-3 hrs
[10] = tested on: PC-12; assay: Neuroprotective activity in rat PC-12 cells assessed as fold increase in upregulation of HO-1 expression measured at 30 uM for 6 hrs by immunoblotting analysis; assay type: functional
[11] = tested on: PC-12; assay: Cytotoxicity in rat PC-12 cells assessed as cell viability incubated for 24 hrs by MTT assay; assay type: functional, cell-based; conditions: PC-12, 24 h
[12] = tested on: PC-12; assay: Antiinflammatory activity in rotenone induced cytotoxicity in rat PC-12 cells assessed as reduction of fluorescence signal pretreated at 10 to 30 uM for 4 hrs followed by rotenone addition treated for 6 hrs measured after 1 hr of H2-DCFDA addition by spectrophotometric analysis; assay type: functional, cell-based; conditions: dose 10-30 µM, time 11.0 hrs
[13] = target: T1, Nuclear factor erythroid 2-related factor 2 (Rattus norvegicus); assay: Induction of Nrf2 nuclear translocation in rat PC12 cells at 10 uM for 3 hrs by Western blotting analysis; assay type: cell-based; conditions: PC-12, filed as activator
[14] = tested on: PC-12; assay: Antiinflammatory activity in 6-OHDA-induced cytotoxicity in rat PC-12 cells assessed as reduction of fluorescence signal pretreated at 10 to 30 uM for 4 hrs followed by 6-OHDA addition treated for 6 hrs measured after 1 hr of H2-DCFDA addition by spectrophotometric analysis; assay type: functional, cell-based; conditions: dose 10-30 µM, time 11.0 hrs
[15] = tested on: PC-12; assay: Reversal of upregulation of HO-1 in rat PC-12 cells pretreated with LY294002 for 2 hrs followed by compound addition at 10 uM for 2 to 3 hrs by Western blotting analysis; assay type: functional, cell-based; conditions: time 2-3 hrs
[16] = tested on: PC-12; assay: Reversal of upregulation of HO-1 in rat PC-12 cells pretreated with SP600125 for 2 hrs followed by compound addition at 10 uM for 2 to 3 hrs by Western blotting analysis; assay type: functional, cell-based; conditions: time 2-3 hrs
[17] = tested on: PC-12; assay: Antiinflammatory activity in 6-OHDA-induced cytotoxicity in rat PC-12 cells assessed as reduction of ROS production pretreated at 10 to 30 uM for 4 hrs followed by 6-OHDA addition treated for 6 hrs measured after 1 hr of H2-DCFDA addition by measuring fluorescence; assay type: functional, cell-based; conditions: dose 10-30 µM, time 11.0 hrs
[18] = target: T1, Nuclear factor erythroid 2-related factor 2 (Rattus norvegicus); assay: Induction of Nrf2 nuclear translocation in rat PC12 cells assessed as increase in phosphorylation of Akt pretreated with LY294002 for 2 hrs followed by compound addition at 10 uM for 2 to 3 hrs by Western blotting analysis; assay type: cell-based; conditions: PC-12, time 2-3 hrs
[19] = tested on: PC-12; assay: Cytotoxicity in rat PC-12 cells assessed as cell viability measured at 30 uM for 24 hrs by MTT assay; assay type: functional, cell-based
[20] = target: T1, Nuclear factor erythroid 2-related factor 2 (Rattus norvegicus); assay: Induction of Nrf2 nuclear translocation in rat PC12 cells assessed as change in phosphorylation of p38 MAPK level at 10 uM for 2 to 3 hrs by Western blotting analysis; assay type: cell-based; conditions: PC-12, time 2-3 hrs
[21] = tested on: PC-12; assay: Neuroprotective activity in rat PC-12 cells assessed as upregulation of HO-1 expression measured at 10 uM after 3 to 6 hrs by immunoblotting analysis; assay type: functional, cell-based; conditions: time 3-6 hrs
[22] = tested on: PC-12; assay: Neuroprotective activity against 6-OHDA-induced cytotoxicity in rat PC-12 cells for 4 hrs followed by exposure to 6-OHDA measured after 24 hrs by MTT assay; assay type: functional, cell-based; conditions: dose 0.1-30 µM, time 28.0 hrs
[23] = tested on: PC-12; assay: Neuroprotective activity in rat PC-12 cells assessed as upregulation of HO-1 expression measured for 6 hrs by immunoblotting analysis; assay type: functional, cell-based; conditions: dose 1-30 µM
[24] = Neurotoxicity in rotenone induced at rat PC-12 cells assessed as cell viability at 30 uM pretreated for 4 hrs followed by rotenone addition measured after 24 hrs by MTT assay (reference value: 53.4 +/- 2.6%); assay type: toxicity, cell-based; conditions: time 28 hrs, read-out: Activity
[25] = target: T1, Nuclear factor erythroid 2-related factor 2 (Rattus norvegicus); assay: Induction of Nrf2 nuclear translocation in rat PC12 cells assessed as increase in phosphorylation of ERK2 pretreated with U0126 for 2 hrs followed by compound addition at 10 uM for 2 to 3 hrs by Western blotting analysis; assay type: cell-based; conditions: PC-12, time 2-3 hrs
[26] = tested on: PC-12; assay: Upregulation of HO-1 expression in si-RNA mediated Nrf2 knock down rat PC-12 cells measured by immunoblotting analysis; assay type: functional, cell-based
[27] = target: T1, Nuclear factor erythroid 2-related factor 2 (Rattus norvegicus); assay: Induction of Nrf2 nuclear translocation in rat PC12 cells assessed as increase in phosphorylation of JNK at 10 uM for 2 to 3 hrs by Western blotting analysis; assay type: cell-based; conditions: PC-12, filed as activator, time 2-3 hrs
[28] = tested on: PC-12; assay: Antiinflammatory activity in rotenone induced cytotoxicity in rat PC-12 cells assessed as reduction of ROS production pretreated at 10 to 30 uM for 4 hrs followed by rotenone addition treated for 6 hrs measured after 1 hr of H2-DCFDA addition by measuring fluorescence; assay type: functional, cell-based; conditions: dose 10-30 µM, time 11.0 hrs
[29] = target: T1, Nuclear factor erythroid 2-related factor 2 (Rattus norvegicus); assay: Induction of Nrf2 nuclear translocation in rat PC12 cells assessed as increase in phosphorylation of ERK1 at 10 uM for 2 to 3 hrs by Western blotting analysis; assay type: cell-based; conditions: PC-12, filed as activator, time 2-3 hrs
[30] = target: T1, Nuclear factor erythroid 2-related factor 2 (Rattus norvegicus); assay: Inhibition of Nrf2 nuclear translocation in rat PC12 cells assessed as increase in phosphorylation of p38 MAPK pretreated with SB203580 for 2 hrs followed by compound addition at 10 uM for 2 to 3 hrs by Western blotting analysis; assay type: cell-based; conditions: PC-12, time 2-3 hrs
[31] = tested on: Brain; assay: Antioxidant activity in Fe2+/L-ascorbic acid induced Sprague-Dawley rat brain homogenate assessed as inhibition of lipid peroxide production measured at 100 uM after 60 mins by microplate reader method relative to control; assay type: functional, tissue-based
[32] = tested on: PC-12; assay: Reversal of upregulation of HO-1 in rat PC-12 cells pretreated with U0126 for 2 hrs followed by compound addition at 10 uM for 2 to 3 hrs by Western blotting analysis; assay type: functional, cell-based; conditions: time 2-3 hrs
[33] = tested on: PC-12; assay: Cytotoxicity in 6-OHDA induced rat PC-12 cells assessed as cell viability pretreated with ZnPP for 30 mins followed by compound addition at 10 uM for 4 hrs and measured after 24 hrs of […] addition by MTT assay; assay type: functional, cell-based; conditions: time 28.0 hrs

Compound: CC1(C)Oc2c(c(O)cc3occ(-c4ccco4)c(=O)c23)CC1O (centres undefined)
- Activity [1]: Active
- Activity [2]: inactive
- Activity [3]: Active

- Activity [4]: Active
- Activity [6]: inactive
- Activity [7]: inactive
- inhibition [8]: Active
- Activity [9]: Active
- Activity [13]: Active
- Activity [18]: inactive
- Activity [20]: inactive
- Activity [25]: inactive
- Activity [27]: Active
- Activity [29]: Active
- inhibition [30]: Active
Compound: COc1ccc(-c2coc3cc(O)c4c(c3c2=O)OC(C)(C)C=C4)cc1
- IC50 [5]: 4.8 µM
- fold change (FC) [10]: 2
- IC50 [11]: 3.9 µM
- Activity [12]: Active
- Activity [14]: Active
- Activity [15]: Active
- Activity [16]: Active
- Activity [17]: Active
- Activity [19]: inactive
- Activity [21]: Active
- Activity [22]: Dose-Dependent Effect
- Activity [23]: Dose-Dependent Effect
- Activity [2]: Active
- viability at 30 µM [24]: ≤ 81.8%
- Activity [26]: inactive
- Activity [28]: Active
- inhibition [31]: 28.8%
- Activity [32]: Active
- Activity [33]: Active
